Measurements taken from patent US12280037B2, “Method and pharmaceutical composition for treating or preventing trichomoniasis and uses thereof” (EVOFEM BIOSCIENCES, INC., priority 2020, dated 2025).
Converted amounts (≈) assume the structure as drawn. “And” between values parts separate entries of the source, which are not always exact repeats. Identical values can stand only once.

Experiments:
[1] = Thorough QT (TQT) study: QTc, cardiac conduction and adverse events; details: Moxifloxacin 400 mg oral (control)
Protocol: A TQT study was also conducted. The TQT study was a double-blind, randomized, placebo-controlled, 4-period, single-dose, crossover design in 52 healthy male and female subjects.

[2] = test system: clinical isolates of T. vaginalis; test: Susceptibility testing, minimal lethal concentration (MLC), aerobic; type: cell-based, Trichomonas vaginalis; details: for MLC, mean (±SD) among all isolates / MLC, median: aerobic, 46-50 h
Protocol: Susceptibility testing was conducted with one hundred (100) clinical isolates of T. vaginalis.
Archived, de-identified, clinical isolates of T. vaginalis that were banked in liquid nitrogen were used for this study. The samples had been collected between July 2015 and June 2017, in accordance with institutional review board guidelines, and all patients had consented to the storage and use of their samples for subsequent testing. […] In brief, trichomonads were grown in Diamond's medium 1025 (containing trypticase soy broth, yeast extract, maltose, and calf serum) adjusted to pH 5.9 and supplemented with streptomycin at 1 g/liter and penicillin G at 100 U/ml. A hemocytometer was used to count the trichomonad population and to adjust it to a concentration of 66,666 cells/ml. Isolates were tested in microtiter plates under aerobic conditions. […] Plates were then incubated at 37° C. for 46 hours to 50 hours and read with a Zeiss Axiovert inverted microscope. The concentration of drug in the microplate wells in which no motile trichomonads were observed was reported as the MLC. […] Low-level resistance was defined as an aerobic MLC of 50 μg/ml to 100 μg/ml, moderate-level resistance as an aerobic MLC of 200 μg/ml, and high-level resistance as an aerobic MLC of >400 μg/ml. The MLCs for metronidazole and secnidazole were analyzed using the Wilcoxon signed-rank test to evaluate the differences between treatments.
Each well of a 96-well plate was filled with 150 μL of T. vaginalis suspension in Diamond's growth media (10^4 trichomonads). […] Cultures were visually assessed for survival, defined by observation of motility, through a 100× inverted microscope.

[3] = Phase 3 study: treatment-emergent adverse events (safety population); type: in vivo, human; details: 2 grams, safety population (N = 74), TEAEs in primary phase
Protocol: Safety analyses, including the evaluation of adverse events, physical examinations, pelvic examinations, collection of vital signs (blood pressure, temperature, and pulse), and clinical laboratory assessments (serum chemistry, hematology, and urinalysis) was conducted at all study visits. Adverse event information was also collected on the phone call between study V2 and V3.

[4] = Phase I study of SYM-1219 4 grams or 6 grams: secnidazole plasma concentrations; type: in vivo, human
Protocol: Additionally, a Phase I, randomized, placebo-controlled, single-blind, two-group study, which assessed the safety, tolerability, and PK of single oral doses of SYM-1219 granules containing either 4 grams or 6 grams of secnidazole administered in approximately 8 ounces of applesauce to 16 healthy male and female subjects, was conducted to determine the supratherapeutic dose for a potential Thorough QT (“TQT”) study. Subjects were randomized 3:1, such that a total of 12 subjects received secnidazole and 4 subjects received placebo. 3 male and 3 female subjects were treated at each secnidazole dose level (i.e., 4 grams or 6 grams). Blood samples for PK assessments were collected at the following timepoints: 30 minutes prior to dosing and 3 hours, 6 hours, 8 hours and 24 hours post dose. Plasma concentrations were summarized by timepoint using descriptive statistics; noncompartmental PK parameters were not calculated.
Eligible subject were admitted to the clinical site on Day −1 and were discharged following a safety evaluation on Day 2; the in-house period was approximately 2 days. Randomization occurred after the assessments of Day −1 determined that subjects remained eligible for the study. All subject were asked to return on Day 7+/2 days for a final study visit. The maximum study duration was approximately 4 weeks to 5 weeks (including the study screening period).
Group A received a single oral dose of SYM-1219 microgranules, containing 4 grams of secnidazole (N=6) (2 packets of SYM-1219 microgranules, 2 grams of secnidazole/packet), or a placebo (N=2) (2 packets of placebo) in approximately 8 oz. of applesauce. […]
Blood samples for PK analysis were collected: 30 minutes prior to dosing and 3 hours, 6 hours, 8 hours and 24 hours postdose. […] Plasma secnidazole concentrations were determined by Celerion, Inc., using validated analytical procedures. […]

[5] = Thorough QT (TQT) study: secnidazole pharmacokinetics by gender; type: in vivo, human
Protocol: A TQT study was also conducted. […] A total of 50 subjects (29 males and 21 females) were included in the PK population. Noncompartmental PK parameters for these subjects are summarized by gender in Table 15 below.

[6] = men, published studies; cited from earlier work
[7] = 100 clinical T. vaginalis isolates
[8] = 100 clinical T. vaginalis isolates, listed as secnidazole

Structure (SMILES): COc1c(N2C[C@@H]3CCCN[C@@H]3C2)c(F)cc2c(=O)c(C(=O)O)cn(C3CC3)c12 [Moxifloxacin]
- Overall incidence rate of TEAEs [1]: 4.3%

Structure (SMILES): Cc1ncc([N+](=O)[O-])n1CC(C)O (stereo not drawn) [Secnidazole, 1-(2-hydroxypropyl)-2-methyl-5-nitromidazole]
- In vitro efficacy in comparison with metronidazole [2, 7]: superior efficacy in vitro
- Isolates demonstrating moderate- or high-level resistance [2, 7]: none of the isolates
- Isolates with a lower MLC for secnidazole than for metronidazole [2, 7]: 96%
- Prevalence of low-level resistance (aerobic MLC 50 μg/ml to 100 μg/ml) [2, 7]: Four
- MLC, mean (±SD) among all isolates [2, 7]: Mean: 5.9 μg/mL
- MLC, median [2, 7]: Median: 1.6 μg/mL
- MLC, mean (±SD) among all isolates [2, 8]: 5.9 ± 13.2 µg/mL and 5.9 µg/mL
- MLC, median [2, 8]: 1.6 µg/mL (≈ 8.64 µM)
- Response of control isolates with established high-level resistance to metronidazole ([2]; control isolates): responded to significantly lower levels of secnidazole
- MLC in the one isolate with a higher MLC for secnidazole than for metronidazole ([2]; single clinical isolate): 3.1 µg/mL
- Abdominal pain: Events n [3]: 1
- Abdominal pain: Patients n (%) [3]: 1 (1.4%)
- Any Adverse Event, Overall: Events n [3]: 13
- Any Adverse Event, Overall: Patients n (%) [3]: 11 (14.9%)
- Back pain: Events n [3]: 0
- Back pain: Patients n (%) [3]: 0%
- Diarrhea: Events n [3]: 1
- Diarrhea: Patients n (%) [3]: 1 (1.4%)
- Dysmenorrhoea: Events n [3]: 0
- Dysmenorrhoea: Patients n (%) [3]: 0%
- Gastrointestinal disorders, Overall: Events n [3]: 5
- Gastrointestinal disorders, Overall: Patients n (%) [3]: 4 (5.4%)
- General disorders and administration site conditions, Overall: Events n [3]: 0
- General disorders and administration site conditions, Overall: Patients n (%) [3]: 0%
- Headache: Events n [3]: 1
- Headache: Patients n (%) [3]: 1 (1.4%)
- Infections and infestations, Overall: Events n [3]: 3
- Infections and infestations, Overall: Patients n (%) [3]: 3 (4.1%)
- Menstruation irregular: Events n [3]: 0
- Menstruation irregular: Patients n (%) [3]: 0%
- Musculoskeletal and connective tissue disorders, Overall: Events n [3]: 1
- Musculoskeletal and connective tissue disorders, Overall: Patients n (%) [3]: 1 (1.4%)
- Myalgia: Events n [3]: 1
- Myalgia: Patients n (%) [3]: 1 (1.4%)
- Nausea: Events n [3]: 2
- Nausea: Patients n (%) [3]: 2 (2.7%)
- Nervous system disorders, Overall: Events n [3]: 1
- Nervous system disorders, Overall: Patients n (%) [3]: 1 (1.4%)
- Productive cough: Events n [3]: 1
- Productive cough: Patients n (%) [3]: 1 (1.4%)
- Pruritus: Events n [3]: 0
- Pruritus: Patients n (%) [3]: 0%
- Reproductive system and breast disorders, Overall: Events n [3]: 1
- Reproductive system and breast disorders, Overall: Patients n (%) [3]: 1 (1.4%)
- Respiratory, thoracic and mediastinal disorders, Overall: Events n [3]: 2
- Respiratory, thoracic and mediastinal disorders, Overall: Patients n (%) [3]: 2 (2.7%)
- Skin and subcutaneous tissue disorders, Overall: Events n [3]: 0
- Skin and subcutaneous tissue disorders, Overall: Patients n (%) [3]: 0%
- Thirst: Events n [3]: 0
- Thirst: Patients n (%) [3]: 0%
- Trichomoniasis (adverse event): Events n [3]: 0
- Trichomoniasis (adverse event): Patients n (%) [3]: 0%
- Upper-airway cough syndrome: Events n [3]: 1
- Upper-airway cough syndrome: Patients n (%) [3]: 1 (1.4%)
- Vomiting: Events n [3]: 1
- Vomiting: Patients n (%) [3]: 1 (1.4%)
- Vulvovaginal candidiasis: Events n [3]: 2
- Vulvovaginal candidiasis: Patients n (%) [3]: 2 (2.7%)
- Vulvovaginal mycotic infection: Events n [3]: 1
- Vulvovaginal mycotic infection: Patients n (%) [3]: 1 (1.4%)
- Vulvovaginal pruritus: Events n [3]: 1
- Vulvovaginal pruritus: Patients n (%) [3]: 1 (1.4%)
- Plasma concentrations and exposures in males versus females ([4]; 4 and 6 grams): slightly lower
- Variability in plasma concentrations ([4]; across the limited sampling times, 4 and 6 grams): 4% to 29%
- Dose proportionality of plasma concentrations ([4]; from 4 grams to 6 grams of secnidazole): essentially dose-proportional
- Plasma concentrations and exposures in males versus females ([5]; 2 and 6 grams): slightly lower
- Secnidazole exposure over the 24-hour sampling period, fold lower in male vs female subjects ([5]; Phase I study concentration-by-time data or TQT study mean PK parameters): approximately 1.5 fold
- Variability in plasma concentrations ([5]; across the sampling times, 2 and 6 grams): 21% to 57%
- Dose proportionality of plasma concentrations ([5]; from 2 grams to 6 grams of secnidazole): essentially dose-proportional
- Time postdose up to which concentrations greater than the median MLC are maintained ([5]; men): at least 96 hours
- Mean dose-normalized (to 2 grams) concentrations at 96 hours [6]: approximately 2 μg/mL
